Tested on: not listed separately
Test: Cytotoxicity, cell growth
Format: cell-based
Details: human, human embryonic lung (HEL) fibroblasts

Row | SMILES | CC50 [µM]
1 | Nc1nc(O)c2ncn(COC(CO)CO)c2n1 [Ganciclovir (GCV), Ganciclovir] | > 394
2 | Nc1nc2c(ncn2COCCO)c(=O)[nH]1 [Acyclovir (ACV), Acyclovir] | > 444
3 | Nc1ccn(C[C@@H](CO)OCP(=O)(O)O)c(=O)n1 [Cidofovir (CDV), Cidofovir] | > 317

Tested on: not listed separately
Test: Cytotoxicity evaluation on RAW 264.7 macrophages
Format: cell-based
Details: mouse

Row | SMILES | CC50 [µM]
4 | O=Cc1cc(Cn2ccc(=O)[nH]c2=O)ccc1O [Compound 7, 5-((2,4-Dioxo-3,4-dihydropyrimidin-1(2H)-yl)methyl)-2-hydroxybenzaldehyde] | > 100
5 | CCCCCCCCCCCCCCCCOP(=O)([O-])OCC[N+](C)(C)C [Miltefosine, reference compound] | 52.2 ± 11.1
6 | Cc1nn(Cc2ccc(O)c(C=O)c2)c(=O)[nH]c1=O [Compound 10, 2-Hydroxy-5-((6-methyl-3,5-dioxo-4,5-dihydro-1,2,4-triazin-2(3H)-yl)methyl) benzaldehyde] | 56.1 ± 16.8
7 | O=Cc1cc(Cn2cc(F)c(=O)[nH]c2=O)ccc1O [Compound 9, 5-((5-Fluoro-2,4-dioxo-3,4-dihydropyrimidin-1(2H)-yl)methyl)-2-hydroxybenzaldehyde] | > 100
8 | Cc1cn(Cc2ccc(O)c(C=O)c2)c(=O)[nH]c1=O [Compound 8, 2-Hydroxy-5-((5-methyl-2,4-dioxo-3,4-dihydropyrimidin-1(2H)-yl)methyl) benzaldehyde] | > 100

Tested on: L. donovani intramacrophage amastigotes
Test: not given
Format: cell-based, Leishmania donovani
Details: CC50 RAW 264.7 / IC50 intramacrophage amastigotes

Row | SMILES | SI (CC50/IC50)
9 | Cc1nn(Cc2ccc(O)c(C=O)c2)c(=O)[nH]c1=O [Compound 10, 2-Hydroxy-5-((6-methyl-3,5-dioxo-4,5-dihydro-1,2,4-triazin-2(3H)-yl)methyl) benzaldehyde] | 1.87

Source: publication PMC9573813 (Molecular Diversity, 2022)
